Assay results reported in US9573960B2, “Glioblastoma inhibiting compounds and their use” (Life & Brain GmbH, priority 2011, dated 2017).
Counter-ions that a name gives are not always drawn. Like-named read-outs stand apart in the source and are kept apart here.

What was measured:
[1] = in vivo; cited from earlier work
[2] = system: four patient-specific primary GBM cultures; settings: for effect on the primary GBM cells' metabolic activity: 1 μM
Experimental: Before screening, cell number was titrated for each cell line separately to ensure that cell proliferation remained in a linear-exponential phase throughout the experiment. 24 hours after seeding 2−3×10^3 cells/well into laminin/poly-L-ornithine coated 96-well plates, primary cultures were treated with 2 nM, 1 μM or 10 μM of each compound (stock solution 10 mM in DMSO). As a reference we treated cells with 50 μM and 500 μM temozolomide (TMZ, SigmaAldrich, Taufkirchen, Germany; stock solution of 100 mM in DMSO). Control cells were treated with 0.5-0.01% DMSO. Six days after application, cell viability was determined using the AlamarBlue® assay according to the manufacturers recommendations (Invitrogen, Karlsruhe, Germany). Fluorescence was measured using an Infinite200 microplate reader (Tecan, Crailsheim, Germany) at Xex=540 nm and Xem=590 nm. Experiments were performed in triplicates for each sample.
To identify cytotoxic and cytostatic compounds, we conducted in vitro drug-screening assays in four different patient-specific primary GBM cultures (see Table 1 for basic characterization of research specimens).
The compound library was screened at three different concentrations (10 μM, 1 μM, 2 nM). The relative metabolic activity was determined after a 5-day incubation with compounds. […] For reference, we applied 50 μM (reported plasma peak concentration) and 500 μM of temozolomide (TMZ, as described in Beier et al., 2008), the current standard chemotherapeutic GBM drug to our cells. […] However, “hits” in the setting of a primary screening were defined as a reduction of the relative metabolic activity under the level of 50% of DMSO-treated control cells.

[3] = system: #155 cells (primary cells from a patient with pharmacoresistent epilepsy); assay: Drug screening, AlamarBlue assay in #155 control cells; format: cell-based, human; settings: 1 μM
Experimental: (§1) Experiments were performed in triplicates for each sample.
As an alternative control, primary cells were evaluated, which were obtained from a patient suffering from pharmacoresistent epilepsy (patient #155).

[4] = system: glioma cell line U87; assay: Drug screening, AlamarBlue assay in U87; format: cell-based; settings: for inhibition at 1 µM: Glioma cell, 144 h, read-out: reduction of the relative metabolic activity of U87
Experimental: as §1
For comparison with our four patient-specific primary GBM cell specimens, we used the commercially available glioma cell line U87 that is frequently investigated in drug discovery settings (FIG. 2).

Compound | effect on the metabolic activity of the #155 cells [3] | inhibition at 1 µM ([4]; 1 μM) [%] | also measured
Cn1nnc2c(C(N)=O)ncn2c1=O [TMZ, temozolomide] | – | – | reported plasma peak concentration [1]: 50 µM; reduction of relative metabolic activity ([2]; 50 μM TMZ, mean of four patient-specific primary cultures): 17%; relative metabolic activity, level ([2]; 500 μM TMZ, mean of four patient-specific primary cultures): 63%
C[C@@]12C(=O)OC(=O)[C@]1(C)[C@H]1CC[C@@H]2O1 [Cantharidin] | diminished the metabolic activity of the #155 cells significantly | – | effect on the primary GBM cells' metabolic activity [2]: no significant effect
O=c1[nH]c(=O)n([C@H]2C[C@H](O)[C@@H](CO)O2)cc1F [Floxuridine] | very little effect | ≤ 50 | –
C=C1[C@@H](C)[C@H]2[C@H](Cc3ccccc3)NC(=O)[C@]23[C@H](OC(C)=O)/C=C/[C@@](C)(O)C(=O)[C@@H](C)C/C=C/[C@H]3[C@@H]1O [cytochalasin D] | diminished the metabolic activity of the #155 cells significantly | – | effect on the primary GBM cells' metabolic activity [2]: no significant effect
CC[C@H]1CN2CCc3cc(OC)c(OC)cc3[C@@H]2C[C@@H]1C[C@H]1NCCc2cc(OC)c(OC)cc21 [emetine] | very little effect | – | –
CCCCCCCCCCCCCC(=O)O[C@@H]1[C@@H](C)[C@@]2(O)[C@@H](C=C(CO)C[C@]3(O)C(=O)C(C)=C[C@@H]23)[C@@H]2C(C)(C)[C@]12OC(C)=O [phorbol myristate acetate] | diminished the metabolic activity of the #155 cells significantly | – | effect on the primary GBM cells' metabolic activity [2]: no significant effect
CC[C@@]1(O)C(=O)OCc2c1cc1n(c2=O)Cc2cc3cc(O)ccc3nc2-1 [10-Hydroxycamptothecin] | very little effect | – | –
COc1cc([C@@H]2c3cc4c(cc3[C@@H](O[C@@H]3O[C@@H]5CO[C@@H](c6cccs6)O[C@H]5[C@H](O)[C@H]3O)[C@H]3COC(=O)[C@H]23)OCO4)cc(OC)c1O [Teniposide] | very little effect | ≤ 50 | –
COc1cc(O)c2c(c1)C(=O)c1cc(C)cc(O)c1C2=O [Physicion] | – | – | influence on the U87's metabolic activity ([4]; 1 μM): significant influence; effect on the primary GBM cells' metabolic activity [2]: without affecting
CC[C@@]1(O)C(=O)OCc2c1cc1n(c2=O)Cc2cc3ccccc3nc2-1 [camptothecin] | very little effect | – | –
CC(=O)O[C@H]1C(=O)[C@@]2(C)[C@H]([C@H](OC(=O)c3ccccc3)[C@]3(O)C[C@H](OC(=O)[C@H](O)[C@@H](NC(=O)c4ccccc4)c4ccccc4)C(C)=C1C3(C)C)[C@]1(OC(C)=O)CO[C@@H]1C[C@@H]2O [paclitaxel] | very little effect | – | –
O=C(Nc1ccc([N+](=O)[O-])cc1Cl)c1cc(Cl)ccc1O [Niclosamide] | very little effect | ≤ 50 | –
C=C(C)[C@H]1Cc2c(ccc3c2O[C@@H]2COc4cc(OC)c(OC)cc4[C@@H]2C3=O)O1 [Rotenone] | very little effect | – | inhibition at 1 µM [4]: ≤ 50%
Nc1nc2nc[nH]c2c(=S)[nH]1 [Thioguanine] | very little effect | ≤ 50 | –
N=c1ccn2c(n1)O[C@H]1[C@H](O)[C@@H](CO)O[C@H]12 [Ancitabine hydrochloride] | – | ≤ 50 | –
O=C1C(Cl)=C(Cl)C(=O)c2c(O)ccc(O)c21 [2,3-dichloro-5,8-dihydroxynapthoquinone] | diminished the metabolic activity of the #155 cells significantly | – | effect on the primary GBM cells' metabolic activity [2]: no significant effect
CC[C@]1(O)C[C@H]2CN(CCc3c([nH]c4ccccc34)[C@@](C(=O)OC)(c3cc4c(cc3OC)N(C=O)[C@H]3[C@@](O)(C(=O)OC)[C@H](OC(C)=O)[C@]5(CC)C=CCN6CC[C@]43[C@@H]65)C2)C1 [vincristine sulfate] | very little effect | – | –
CN(Cc1cnc2nc(N)nc(N)c2n1)c1ccc(C(=O)N[C@@H](CCC(=O)O)C(=O)O)cc1 [Methotrexate] | very little effect | ≤ 50 | –
COc1cc([C@@H]2c3cc4c(cc3[C@H](O)[C@H]3COC(=O)[C@@H]23)OCO4)cc(OC)c1OC [Picropodophyllotoxin] | very little effect | – | inhibition at 1 µM [4]: ≤ 50%
